What was measured:
SK-MEL-28 = experiment: IC50 cell-based assay, adherent cells, SK-MEL-28; details: Homo sapiens, Melanoma, 72 hours, read-out: IC50 of Compounds in Adherent Cell Types
Procedure, shortened: (§1)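 Day 0: plate 20,000 cells per well. Day 1: add compound at a final 1:1000 dilution of DMSO stocks, prepared as a 2-fold series whose top stock was 30 mM, each level in triplicate. After 72 h incubation, add the colorimetric reagent and read A490 2-3 h later.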

HL-60 = experiment: IC50 cell-based assay, suspension cells, HL-60; details: Homo sapiens, Leukemia, AML, read-out: IC50 of Compounds in Suspension Cell Types
AsPC-1 = experiment: IC50 cell-based assay, adherent cells, AsPC-1; details: Homo sapiens, ASPC1, Pancreas, carcinoma, 72 hours, read-out: IC50 of Compounds in Adherent Cell Types
Procedure, shortened: as §1

Panc-1 = experiment: IC50 cell-based assay, adherent cells, Panc-1; details: Homo sapiens, Pancreas, epitheloid carcinoma, 72 hours, read-out: IC50 of Compounds in Adherent Cell Types
Procedure, shortened: as §1

Caki-1 = experiment: IC50 cell-based assay, adherent cells, Caki-1; details: Homo sapiens, Kidney, clear cell carc., skin met, 72 hours, read-out: IC50 of Compounds in Adherent Cell Types
Procedure, shortened: as §1

SKBR-3 = experiment: IC50 cell-based assay, adherent cells, SKBR-3; details: Homo sapiens, SK-BR-3, Breast, ER−, 72 hours, read-out: IC50 of Compounds in Adherent Cell Types
Procedure, shortened: as §1

[1] = Percent weight change of animals in MDA-MB-468 xenograft study; assay type: in vivo, Mouse/SCID; details: qd 50 mg/kg IP, SCID mice
Protocol: (§2) In one embodiment, the effects of a compound provided herein on tumor growth in a mouse animal model were evaluated. In specific embodiments, the mouse animal model was the MDA-MB-468 xenograft model for breast cancer. Studies were performed to evaluate the effect of a compound provided herein on the growth of MDA-MB-468 breast tumors in mice. The test system that was used is summarized below:
(§3) Exemplary Protocol: Ten mice per group were inoculated s.c. on the left flank with 5×10^6 MDA-MB-468 cells. When tumors reached a mean volume of 100 or 200 mm^3, animals began treatment with a compound provided herein (See Table 4). Test article or vehicle were given once daily by IP injection for up to 21 days. Tumors were evaluated every Monday, Wednesday and Friday, body weights and condition were evaluated on a daily basis.
Animal Weight: All animals were weighed […] throughout the study. Group weight change was expressed as a daily group mean weight. Animals that lost greater than 20% of their total starting body weight were euthanized.
(§4) Compound 1 was dosed in mice at a dose of, for example, qd 50 mg/kg, for 22 days or more.
(§5) Compound 2 was dosed in mice at a dose of, for example, qd 20 mg/kg from day 0 to 7, then qd 10 mg/kg from day 8 and thereafter, for 22 days or more.

MDA-MB-468 breast tumors = experiment: Tumor growth inhibition in MDA-MB-468 mouse xenograft model for breast cancer (tumor volume); assay type: in vivo; details: qd 50 mg/kg IP, SCID mice
Protocol: as §2, §3
Cell Culture: MDA-MB-468 breast cancer cells were grown in Liebowitz's L-15 with 10% fetal bovine serum and 1% pen/strep. Cells were routinely trypsinized and passaged 1:4. On the day of implantation, cells were washed in PBS, trypsinized and resuspended in complete media. Cells were washed 3× in serum free media (centrifuged 1000 rpm for 5 min). Cells were resuspended to a density of 1×10^8 cells/mL and diluted 1:1 with Matrigel. Cells were implanted s.c. using a 23 G needle in a volume of 0.1 mL.
Tumor Measurement: Tumors were monitored daily. If, during a daily evaluation, an animal's tumor appeared to have exceeded 1500 mm^3, the tumor was measured; and animals with tumors greater than 1500 mm^3 and/or that had become necrotic and/or hindered movement were euthanized. Tumors were measured twice weekly by measuring each tumor in 2 dimensions, along the largest dimension (length, L) and perpendicular to this dimension (width, W). Tumor weights were calculated using the standard formula: (L×W^2)/2. The mean tumor weight and standard error of the mean were calculated for each group at each time point. An ANOVA was used to compare differences of primary tumor volume.
as §4, §5

Nalm-6-VR = experiment: IC50 cell-based assay, suspension cells, Nalm-6-VR; details: Leukemia, B-ALL, Vincristine resistant, read-out: IC50 of Compounds in Suspension Cell Types

## O=C(Nc1cc(C(F)(F)F)cc(C(F)(F)F)c1)c1cc(-c2ccccc2)oc1C(F)(F)F [Compound 1, 5-Phenyl-2-trifluoromethyl-furan-3-carboxylic acid (3,5-bis-trifluoromethyl-phenyl)-amide]
SK-MEL-28
  IC50: < 5 µM
HL-60
  IC50: < 5 µM
AsPC-1
  IC50: < 5 µM
Panc-1
  IC50: < 5 µM
Caki-1
  IC50: > 20 µM
SKBR-3
  IC50: < 5 µM
[1]; Day 1
  Percent Weight Change of Control and Treated Animals, mean: 0.00%
[1]; Day 2
  Percent Weight Change of Control and Treated Animals, mean: −0.44%
[1]; Day 3
  Percent Weight Change of Control and Treated Animals, mean: −1.43%
[1]; Day 4
  Percent Weight Change of Control and Treated Animals, mean: −2.23%
[1]; Day 5
  Percent Weight Change of Control and Treated Animals, mean: −2.06%
[1]; Day 6
  Percent Weight Change of Control and Treated Animals, mean: −2.03%
[1]; Day 7
  Percent Weight Change of Control and Treated Animals, mean: −3.50%
[1]; Day 8
  Percent Weight Change of Control and Treated Animals, mean: −4.53%
[1]; Day 9
  Percent Weight Change of Control and Treated Animals, mean: −2.38%
[1]; Day 10
  Percent Weight Change of Control and Treated Animals, mean: −3.42%
[1]; Day 11
  Percent Weight Change of Control and Treated Animals, mean: −1.63%
[1]; Day 12
  Percent Weight Change of Control and Treated Animals, mean: 1.40%
[1]; Day 13
  Percent Weight Change of Control and Treated Animals, mean: 1.13%
[1]; Day 14
  Percent Weight Change of Control and Treated Animals, mean: −0.56%
[1]; Day 15
  Percent Weight Change of Control and Treated Animals, mean: 2.28%
[1]; Day 16
  Percent Weight Change of Control and Treated Animals, mean: 2.07%
[1]; Day 17
  Percent Weight Change of Control and Treated Animals, mean: 2.03%
[1]; Day 18
  Percent Weight Change of Control and Treated Animals, mean: 2.87%
[1]; Day 19
  Percent Weight Change of Control and Treated Animals, mean: 4.84%
[1]; Day 20
  Percent Weight Change of Control and Treated Animals, mean: 0.92%
[1]; Day 21
  Percent Weight Change of Control and Treated Animals, mean: 1.87%
[1]; Day 22
  Percent Weight Change of Control and Treated Animals, mean: 0.07%
MDA-MB-468 breast tumors; Day 1
  Tumor Volumes in Control and Treated Animals, mean: 112.66 mm^3
MDA-MB-468 breast tumors; Day 3
  Tumor Volumes in Control and Treated Animals, mean: 101.41 mm^3
MDA-MB-468 breast tumors; Day 5
  Tumor Volumes in Control and Treated Animals, mean: 91.44 mm^3
MDA-MB-468 breast tumors; Day 8
  Tumor Volumes in Control and Treated Animals, mean: 146.58 mm^3
MDA-MB-468 breast tumors; Day 10
  Tumor Volumes in Control and Treated Animals, mean: 175.96 mm^3
MDA-MB-468 breast tumors; Day 12
  Tumor Volumes in Control and Treated Animals, mean: 226.90 mm^3
MDA-MB-468 breast tumors; Day 15
  Tumor Volumes in Control and Treated Animals, mean: 276.23 mm^3
MDA-MB-468 breast tumors; Day 17
  Tumor Volumes in Control and Treated Animals, mean: 336.22 mm^3
MDA-MB-468 breast tumors; Day 19
  Tumor Volumes in Control and Treated Animals, mean: 366.60 mm^3
MDA-MB-468 breast tumors; Day 22
  Tumor Volumes in Control and Treated Animals, mean: 383.38 mm^3
Nalm-6-VR
  IC50: < 5 µM
